Experiments:
[1] = test system: HeLa cells; assay: MTT antiproliferative assay, HeLa; assay type: cell-based; conditions: Homo sapiens, 72 h, read-out: Growth inhibition (%) ± SEM
Protocol: (§1) The in vitro anticancer effects of the presented compounds were assessed using the standard MTT [3-(4,5-dimethylthiazol2-yl)-2,5-diphenyltetrazolium bromide] assay on the following human cancer cell lines: cervical (HeLa and SiHa), breast (MCF-7 and MDA-MB-231) and ovarian cancer (A2780). The selectivity of the tested compounds was determined on murine embryonal fibroblast cells (NIH/3T3). The utilised cell lines were purchased from the European Collection of Cell Cultures (Salisbury, UK). The cells were cultivated in Eagle’s minimal essential medium supplemented with 10% fetal bovine serum, 1% non-essential amino acids and 1% antibiotic-antimycotic complex (penicillin, streptomycin, amphotericin B) at 37 °C in a humidified atmosphere containing 5% CO2. All media and supplements were purchased from Lonza Group Ltd. (Basel, Switzerland). The cancer cells were seeded into 96-well plates (5000 cells/well) and incubated overnight, and the test compounds were applied in two different concentrations (10 µM and 30 µM) and incubated for another 72 h under cell-culturing conditions. […] After 72 h, 20 µL of the 5 mg/mL MTT solution was added to each well, and the plates were incubated for 4 h. The medium was removed, and the formazan crystals produced by the mitochondrial activity were dissolved in dimethyl sulfoxide (DMSO) via shaking at 37 °C for 30 min. The absorbances were measured at 545 nm using a microplate reader (SPECTROStar Nano, BMG Labtech, Offenburg, Germany). The reference agent was cisplatin, which is a widely used cytotoxic agent. The IC50 values were calculated using sigmoid curve fitting. Two independent experiments were performed with five parallel wells for each condition. Calculations were performed using the GraphPad Prism 9 software (GraphPad Software Inc., San Diego, CA, USA).

[2] = test system: SiHa cells; assay: MTT antiproliferative assay, SiHa; assay type: cell-based; conditions: Homo sapiens, 72 h, read-out: Growth inhibition (%) ± SEM
Protocol: as §1

[3] = test system: A2780 cells; assay: MTT antiproliferative assay, A2780; assay type: cell-based; conditions: Homo sapiens, 72 h, read-out: Growth inhibition (%) ± SEM; for inhibition at 10 µM: A2780, 10 μM; for inhibition at 30 µM: A2780, 30 μM
Protocol: as §1

[4] = test system: MCF-7 cells; assay: MTT antiproliferative assay, MCF-7; assay type: cell-based; conditions: Homo sapiens, MCF7, 72 h, read-out: Growth inhibition (%) ± SEM; for inhibition at 10 µM: MCF-7, 10 μM; for inhibition at 30 µM: MCF-7, 30 μM
Protocol: as §1

[5] = test system: NIH/3T3 fibroblast cells; assay: MTT assay on non-malignant fibroblasts (selectivity); assay type: cell-based, murine; conditions: Mus musculus, NIH3T3, 72 h, read-out: Growth inhibition (%) ± SEM; for inhibition at 10 µM: NIH/3T3, 10 μM; for inhibition at 30 µM: NIH/3T3, 30 μM
Protocol: as §1

[6] = test system: MDA-MB-231 cells; assay: MTT antiproliferative assay, MDA-MB-231; assay type: cell-based; conditions: Homo sapiens, 72 h, read-out: Growth inhibition (%) ± SEM; for inhibition at 10 µM: MDA-MB-231, 10 μM; for inhibition at 30 µM: MDA-MB-231, 30 μM
Protocol: as §1

Compound | inhibition at 10 µM [1] [%] | inhibition at 30 µM [1] [%] | inhibition at 10 µM [2] [%] | inhibition at 30 µM [2] [%] | inhibition at 10 µM [3] [%] | inhibition at 30 µM [3] [%] | inhibition at 10 µM [4] [%] | inhibition at 30 µM [4] [%] | inhibition at 10 µM [5] [%] | inhibition at 30 µM [5] [%] | inhibition at 10 µM [6] [%] | inhibition at 30 µM [6] [%]
COC(=O)[C@]1(C)CCC[C@@]2(C)[C@@H]3CC[C@@]4(CO)C[C@]3(CC[C@@H]21)C[C@H]4NCc1ccccc1 [Compound 8, (4R,4aS,6aR,8R,9R,11aR,11bS)-Methyl 8-(benzylamino)-9-(hydroxymethyl)-4,11b-dimethyltetradecahydro-6a,9-methanocyclohepta[a]naphthalene-4-carboxylate] | < 20 | 97.49 ± 0.52 | < 20 | 95.3 ± 1.23 | 20.3 ± 2.05 | 98.25 ± 0.4 | 45.4 ± 1.94 | 98.9 ± 0.18 | 25.7 ± 0.97 | 98.27 ± 0.37 | < 20 | 97.89 ± 0.66
COC(=O)[C@]1(C)CCC[C@@]2(C)[C@@H]3CC[C@@]4(CO)C[C@]3(CC[C@@H]21)C[C@H]4NCc1ccc(F)cc1 [Compound 9, (4R,4aS,6aR,8R,9R,11aR,11bS)-Methyl 8-((4-fluorobenzyl)amino)-9-(hydroxymethyl)-4,11b-dimethyltetradecahydro-6a,9-methanocyclohepta[a]naphthalene-4-carboxylate] | < 20 | 95.35 ± 0.58 | < 20 | 86 ± 2.92 | 73.6 ± 2.61 | 99.01 ± 0.11 | 79.8 ± 1.59 | 98.07 ± 0.35 | < 20 | 93.9 ± 1.94 | 58 ± 2.59 | 93.42 ± 0.39
COC(=O)[C@]1(C)CCC[C@@]2(C)[C@@H]3CC[C@@]4(CO)C[C@]3(CC[C@@H]21)C[C@H]4NCc1ccc(OC)cc1 [Compound 10, (4R,4aS,6aR,8R,9R,11aR,11bS)-Methyl 9-(hydroxymethyl)-8-((4-methoxybenzyl)amino)-4,11b-dimethyltetradecahydro-6a,9-methanocyclohepta[a]naphthalene-4-carboxylate] | – | 97.65 ± 0.64 | < 20 | 97.61 ± 0.9 | 39 ± 1.87 | 98.38 ± 0.51 | 86.5 ± 0.88 | 100 ± 0.2 | 20.3 ± 2.93 | 96.6 ± 1.1 | 78.7 ± 2.63 | 98.09 ± 0.59
COC(=O)[C@]1(C)CCC[C@@]2(C)[C@@H]3CC[C@@]4(CO)C[C@]3(CC[C@@H]21)C[C@H]4NCc1cccc2ccccc12 [Compound 15, (4R,4aS,6aR,8R,9R,11aR,11bS)-Methyl 9-(hydroxymethyl)-4,11b-dimethyl-8-((naphthalen-1-ylmethyl)amino)tetradecahydro-6a,9-methanocyclohepta[a]naphthalene-4-carboxylate] | < 20 | 94.9 ± 2.04 | < 20 | 87.9 ± 1.33 | 89.5 ± 1.76 | 99.67 ± 0.49 | 54 ± 3.39 | 97.43 ± 0.59 | < 20 | 96.5 ± 0.77 | 31.3 ± 1.89 | 94.2 ± 0.98
CC[C@@H](NC[C@@]12CC[C@@H]3[C@@](CC[C@H]4[C@@]3(C)CCC[C@@]4(C)C(=O)OC)(C[C@H]1O)C2)c1ccccc1 [Compound 24, (4R,4aS,6aR,8R,9S,11aR,11bS)-Methyl 8-hydroxy-4,11b-dimethyl-9-((((R)-1-phenylpropyl)amino)methyl)tetradecahydro-6a,9-methanocyclohepta[a]naphthalene-4-carboxylate] | < 20 | 96.56 ± 0.88 | < 20 | 78.1 ± 1.56 | < 20 | 99.28 ± 0.52 | 34.8 ± 1.99 | 93.6 ± 0.94 | 21.8 ± 2.15 | 97.69 ± 0.87 | < 20 | 97.6 ± 1.01
CC[C@H](NC[C@@]12CC[C@@H]3[C@@](CC[C@H]4[C@@]3(C)CCC[C@@]4(C)C(=O)OC)(C[C@H]1O)C2)c1ccccc1 [Compound 25, (4R,4aS,6aR,8R,9S,11aR,11bS)-Methyl 8-hydroxy-4,11b-dimethyl-9-((((S)-1-phenylpropyl)amino)methyl)tetradecahydro-6a,9-methanocyclohepta[a]naphthalene-4-carboxylate] | < 20 | 32.2 ± 2.88 | < 20 | < 20 | < 20 | 73.83 ± 0.57 | 40.1 ± 1.44 | 78.8 ± 1.52 | < 20 | 93.7 ± 1.11 | < 20 | 69.3 ± 1.96
COC(=O)[C@]1(C)CCC[C@@]2(C)[C@@H]3CC[C@@]4(CNCc5cccc6ccccc56)C[C@]3(CC[C@@H]21)C[C@H]4O [Compound 26, (4R,4aS,6aR,8R,9S,11aR,11bS)-Methyl 8-hydroxy-4,11b-dimethyl-9-(((naphthalen-1-ylmethyl)amino)methyl)tetradecahydro-6a,9-methanocyclohepta[a]naphthalene-4-carboxylate] | 49.5 ± 1.23 | 93.6 ± 1.56 | 63.4 ± 0.91 | 86.9 ± 1.69 | 61.4 ± 1.45 | 98.21 ± 0.43 | 90.7 ± 1.57 | 97.49 ± 0.53 | 25.7 ± 1.93 | 95.6 ± 0.96 | 87.61 ± 0.59 | 93.1 ± 1.53
COC(=O)[C@]1(C)CCC[C@@]2(C)[C@@H]3CC[C@@]4(CN[C@@H](C)c5cccc6ccccc56)C[C@]3(CC[C@@H]21)C[C@H]4O [Compound 27, (4R,4aS,6aR,8R,9S,11aR,11bS)-Methyl 8-hydroxy-4,11b-dimethyl-9-((((S)-1-(naphthalen-1-yl)ethyl)amino)methyl)tetradecahydro-6a,9-methanocyclohepta[a]naphthalene-4-carboxylate] | < 20 | 96.38 ± 0.83 | < 20 | 86.9 ± 2.27 | 59 ± 1.68 | 98.92 ± 0.22 | 79.6 ± 2.89 | 97.63 ± 0.31 | < 20 | 94 ± 1.64 | 67.2 ± 1.94 | 93.69 ± 0.42
COC(=O)[C@]1(C)CCC[C@@]2(C)[C@@H]3CC[C@@]4(CN[C@H](C)c5cccc6ccccc56)C[C@]3(CC[C@@H]21)C[C@H]4O [Compound 28, (4R,4aS,6aR,8R,9S,11aR,11bS)-Methyl 8-hydroxy-4,11b-dimethyl-9-((((R)-1-(naphthalen-1-yl)ethyl)amino)methyl)tetradecahydro-6a,9-methanocyclohepta[a]naphthalene-4-carboxylate] | 46.8 ± 1.44 | 94.66 ± 0.63 | 63.4 ± 2.66 | 86.1 ± 3.79 | 60.1 ± 2.24 | 98.53 ± 0.42 | 90.63 ± 0.54 | 97.75 ± 0.39 | < 20 | 94 ± 1.95 | 88 ± 0.54 | 92.9 ± 1.04
COC(=O)[C@]1(C)CCC[C@@]2(C)[C@@H]3CC[C@@]4(CN[C@H](C)c5ccc6ccccc6c5)C[C@]3(CC[C@@H]21)C[C@H]4O [Compound 29, (4R,4aS,6aR,8R,9S,11aR,11bS)-Methyl 8-hydroxy-4,11b-dimethyl-9-((((R)-1-(naphthalen-2-yl)ethyl)amino)methyl)tetradecahydro-6a,9-methanocyclohepta[a]naphthalene-4-carboxylate] | < 20 | 92.17 ± 0.38 | < 20 | 79.5 ± 2.33 | 21.9 ± 0.73 | 75 ± 1.79 | 32.5 ± 0.92 | 93.08 ± 0.3 | < 20 | 32 ± 1.3 | < 20 | 95.3 ± 0.97

— PMC10745768, “Stereoselective Synthesis and Antiproliferative Activity of Steviol-Based Diterpene 1,3-Aminoalcohol Regioisomers” (Molecules, 2023)
